# Entries after “also recorded” stand apart in the source; their conditions may differ.
# Key:
# CAL-27 tumor cells = test: GPx and GRd antioxidant enzyme activity in tumor cells; assay type: cell-based
# Excerpt: (§1) The relationship between the mitochondrial changes caused by melatonin and the cell death induced by this molecule in these tumor cells was studied. Melatonin increases the number of mitochondria as well as the number of cristae, DNA, and mitochondrial mass. The result is an increase in respiratory chain complexes, and accordingly an increase in oxygen consumption, which is related to an increase in free radicals and oxidative stress reflected by an increase in the GSSG/GSH ratio. However, the antioxidant capacity is not modified. The activity and the expression of antioxidant enzymes such as GPx and the GRd is not modified either.
# tumor cells [1] = test: Melatonin penetration in tumor cells in vitro; assay type: cell-based; details: cells incubated with 1500 μM melatonin for 24 hours
# Protocol: To carry out the assays, CAL-27 and SCC9 cells have been used as typical example of head and neck squamous cell carcinoma (HNSCC) cancer cells.
# In the in-vitro experiments, the tumor cells were incubated with different concentrations of melatonin. It was observed that melatonin readily enters the tumor cells, reaching levels of 450 ng/mg of proteins after incubating the cells with melatonin at a dose of 1500 μM for 24 hours (FIG. 1).
# [2] = athymic nude (nu/nu), mouse, in vivo
# Protocol: (§2) For the in vivo assays, athymic nude mice (nu/nu) (Janvier, Pays de la Loire, France) of about 5-6 weeks of age (18-20 g) were used. The animals were held in the animal housing unit of the Biomedical Research Center of University of Granada (CIBM) in sterile conditions and under controlled photoperiod (12:12 h) and temperature (22±1° C.) environments, with ad libitum water and laboratory diet. The handling and transplant of the animals was carried out in a laminar flow biosafety cabinet. The animals were anesthetized with an i.p. injection of ketamine (80 mg/kg) and xylazine (4 mg/kg).
# (§3) Xenografts were performed with CAL-27 and SCC9 cells (the latter being resistant to melatonin). Cells enzymatically separated with trypsin-EDTA are resuspended at a concentration of 4×10^6 cells per mouse in PBS. Cell viability is determined by means of the Trypan Blue test. The cells are injected into the left flank of the mouse, with a volume of 200 μL of cell suspension being injected into each mouse with the help of a 1 mL syringe with a needle measuring 16×0.5 mm.
# The experimental groups were as follows: • 1. […]
# The concentration of melatonin in the tumors was measured after sacrificing the animals after 21 days. When it is injected directly into the tumor, the concentration of melatonin cannot be measured due to the limited amount of sample taking into account that the tumor practically disappears.
# SCC-9 cells = test: Mitochondrial function and free radicals in melatonin-resistant cells; assay type: cell-based
# Excerpt: as §1, with “either. […] To carry out the assays, CAL-27 and SCC9 cells have been used as typical example of head and neck squamous cell carcinoma (HNSCC) cancer cells.” for “either.”
# tumor cells [3] = test: Mitochondrial changes, oxygen consumption and free radicals in tumor cells; assay type: cell-based
# Excerpt: as §1, with “either. […] In other words, mitochondrial activity increases, and accordingly free radicals which induce cell death also increase. To carry out the assays, CAL-27 and SCC9 cells have been used as typical example of head and neck squamous cell carcinoma (HNSCC) cancer cells.” for “either.”
# [4] = tested on: CAL-27 and SCC9 cells xenografts; test: Tumor volume in xenografted mice (photographs, NMR analysis); assay type: in vivo, athymic nude mice (nu/nu); details: for tumor volume: intratumoral injection
# Protocol: as §2, §3
# The body weight and tumor size are measured and recorded two or three times a week throughout the experiment. The tumor volume is calculated using the following formula: ½ (L×W2) (mm^3), where L is the length and W is the width. After the appearance of a tumoral node (100 mm^3), the mice carrying the tumors are randomly assigned to several groups.
# The experimental groups were as follows: • 1. Mouse with untreated tumor • 2. Mouse with tumor treated with subcutaneously administered melatonin (s.c.) at a dose of 300 mg/kg (4.5% w/v melatonin solution). The concentration of melatonin in the tumor when melatonin is administered through this route is 10 ng/mg of proteins. • 3. Mouse with tumor treated with administered intratumorally melatonin (60 μl of a 0.1% w/v melatonin solution) fora tumor volume of 100 mm^3. 0.1% of melatonin is the minimum effective dose (in vitro) for inducing 80% cell death. When 0.1% of melatonin is administered, a concentration of 450 ng/mg of proteins is reached in the tumor. • 4. Mouse with tumor treated with intratumorally melatonin administered (60 μl of a 4.5% melatonin solution) for a tumor volume of 100 mm^3.
# Therefore, once the tumor reached the indicated volume of 100 mm^3, it is treated with melatonin daily for 21 days according to the following protocol: • A. Injected s.c. (300 mg/kg which is equivalent to a 4.5% solution) • B. Injected directly into the tumor (60 μl of a 0.1% melatonin solution) • C. Injected directly into the tumor (60 μl of a 4.5% melatonin solution) • D. Injected directly into the tumor (60 μl of a 0.1% melatonin solution) until the complete disappearance of the tumor (28 days). • E. Photographs of the tumor were taken at the end of the treatment of each of the groups. […]
# tumor cells (CAL-27) = test: Cell death, apoptosis and proliferation of tumor cells in vitro; assay type: cell-based
# Excerpt: To carry out the assays, CAL-27 and SCC9 cells have been used as typical example of head and neck squamous cell carcinoma (HNSCC) cancer cells. […] The relationship between the mitochondrial changes caused by melatonin and the cell death induced by this molecule in these tumor cells has been studied. Melatonin increases mitochondrial mass, mitochondrial DNA, the number of mitochondria, as well as the number of mitochondrial cristae. The result is an increase in respiratory chain complexes, and accordingly an increase in oxygen consumption, which is related to an increase in free radicals and oxidative stress. […] In other words, the cytotoxic effects of melatonin in the tumor cells are related to an increase in mitochondrial function, and the increase in mitochondrial function in the tumor cell in turn induces apoptosis processes, which also entails the inhibition of protein synthesis.
smiles,measurement,setting,value
"COc1ccc2[nH]cc(CCNC(C)=O)c2c1 [melatonin, N-acetyl-5-methoxytryptamine]",SOD,CAL-27 tumor cells,slight increase
same,antioxidant capacity,CAL-27 tumor cells,not modified
same,GPx and GRd antioxidant enzyme activity,CAL-27 tumor cells; CAL-27 tumor cells,not modified; also recorded: does not increase
same,melatonin levels in tumor cells,tumor cells [1],450 ng/mg of proteins
same,concentration of melatonin reached in the tumor,[2],450 ng/mg of proteins
same,mitochondrial oxygen consumption and production of free radicals,"SCC-9 cells; SCC-9 cells, compared with CAL-27",less production of reactive oxygen species; also recorded: much lower
same,sensitivity of cells to melatonin,SCC-9 cells; SCC-9 head and neck cancer cells,more resistant
same,ATP production,tumor cells [3],does not increase
same,GSSG/GSH ratio (oxidative stress),tumor cells [3],increase
same,free radicals,tumor cells [3],increase
same,intermediate products of the Krebs cycle (metabolomics),tumor cells [3],increase
same,mitochondrial DNA,tumor cells [3],increases
same,mitochondrial mass,tumor cells [3],increases
same,number of mitochondria and number of cristae,tumor cells [3],increases
same,oxygen consumption,tumor cells [3],increase
same,tumor volume,[4]; 21 days after treatment,decreases drastically; also recorded: disappearing almost completely; also recorded: the decrease in tumor volume is so drastic that the tumor can hardly be observed
same,tumor volume,[4]; 28 days after treatment,completely disappears; also recorded: disappears completely; also recorded: virtually disappeared
same,necrotic areas in tumors (NMR images),[4]; s.c. administered melatonin,certain necrotic areas are observed
same,tumor volume with respect to the control,"[4]; subcutaneous (systemic route), 300 mg/kg, 21 days","decreases very little; also recorded: the decrease in tumor volume is much lower; also recorded: the tumor volume decreases, although the effect is not very significant"
same,cell cycle,tumor cells (CAL-27),stopping of cell cycle in the S and G2 phases
same,cell proliferation,tumor cells (CAL-27),Inhibition
same,size and number of colonies of tumor cells,tumor cells (CAL-27); CAL-27 irradiated and treated with melatonin,significant decrease
same,minimum effective dose (in vitro) for inducing 80% cell death,tumor cells (CAL-27); in vitro,0.1%
same,apoptosis,"tumor cells (CAL-27); tumor cells, high concentrations",increases apoptosis in a dose and time dependent manner
